According to patent US20230017045A1, “PYRIDINE AND PYRIMIDINE CARBOXYLATE HERBICIDES AND METHODS OF USE THEREOF” (Dow AgroSciences LLC, priority 2017, published 2023):

Each molecule was assayed on test plant species (assay: Post-emergent herbicidal activity test (greenhouse, foliar spray, visual growth reduction)). Details: post-emergence, 336 h, ALOMY: blackgrass (Alopecurus myosuroides), 140 g ai/ha, 14 days after application, read-out: Visual Growth Reduction (%) 14 Days After Application, ALOMY.
Format: in vivo
How it was run: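 Greenhouse plants at first–second true leaf stage sprayed overhead at 187 L/ha with compound in acetone/water/isopropanol/DMSO/crop oil/X-77 carrier; controls received solvent blank. Injury rated visually after 14 d on a 0–100% scale versus untreated and control plants, converted to growth reduction.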
With `O=C(O)c1nc(-c2ccc(Cl)c(F)c2F)ccc1Cl` [F70, 3-Chloro-6-(4-chloro-2,3-difluorophenyl) picolinic acid] the pest or weed control at 140 g/ha was 0 to 29%. `O=C(O)c1nc(-c2ccnc(Cl)c2Cl)ccc1Cl` [F133, 2′,3′,5-Trichloro-[2,4′-bipyridine]-6-carboxylic acid] gave a pest or weed control at 140 g/ha of 0 to 29%.

Same assay, conditions: post-emergence, 336 h, AMARE: redroot pigweed (Amaranthus retroflexus), 140 g ai/ha, 14 days after application, read-out: Visual Growth Reduction (%) 14 Days After Application, AMARE
For `O=C(O)c1nc(-c2ccc(Cl)c(F)c2F)ccc1Cl` [F70, 3-Chloro-6-(4-chloro-2,3-difluorophenyl) picolinic acid], the pest or weed control at 140 g/ha was 95 to 100%. `O=C(O)c1nc(-c2ccnc(Cl)c2Cl)ccc1Cl` [F133, 2′,3′,5-Trichloro-[2,4′-bipyridine]-6-carboxylic acid] was tested, and the pest or weed control at 140 g/ha was 0 to 29%.

Same assay, conditions: post-emergence, 336 h, AVEFA: wild oat (Avena fatua), 140 g ai/ha, 14 days after application, read-out: Visual Growth Reduction (%) 14 Days After Application, AVEFA
Molecule `O=C(O)c1nc(-c2ccc(Cl)c(F)c2F)ccc1Cl` [F70, 3-Chloro-6-(4-chloro-2,3-difluorophenyl) picolinic acid] has a pest or weed control at 140 g/ha of 0 to 29%. With `O=C(O)c1nc(-c2ccnc(Cl)c2Cl)ccc1Cl` [F133, 2′,3′,5-Trichloro-[2,4′-bipyridine]-6-carboxylic acid] the pest or weed control at 140 g/ha was 0 to 29%.

Same assay, conditions: post-emergence, 336 h, CHEAL: lambsquarters (Chenopodium album), 140 g ai/ha, 14 days after application, read-out: Visual Growth Reduction (%) 14 Days After Application, CHEAL
Work on `O=C(O)c1nc(-c2ccc(Cl)c(F)c2F)ccc1Cl` [F70, 3-Chloro-6-(4-chloro-2,3-difluorophenyl) picolinic acid] yielded a pest or weed control at 140 g/ha of 95 to 100%. Work on `O=C(O)c1nc(-c2ccnc(Cl)c2Cl)ccc1Cl` [F133, 2′,3′,5-Trichloro-[2,4′-bipyridine]-6-carboxylic acid] yielded a pest or weed control at 140 g/ha of 75 to 84%.

Same assay, conditions: post-emergence, 336 h, CIRAR: canada thistle (Cirsium arvense), 140 g ai/ha, 14 days after application, read-out: Visual Growth Reduction (%) 14 Days After Application, CIRAR
Molecule `O=C(O)c1nc(-c2ccc(Cl)c(F)c2F)ccc1Cl` [F70, 3-Chloro-6-(4-chloro-2,3-difluorophenyl) picolinic acid] has a pest or weed control at 140 g/ha of 75 to 84%. With `O=C(O)c1nc(-c2ccnc(Cl)c2Cl)ccc1Cl` [F133, 2′,3′,5-Trichloro-[2,4′-bipyridine]-6-carboxylic acid] the pest or weed control at 140 g/ha was 0 to 29%.

Same assay, conditions: post-emergence, 336 h, CYPES: yellow nutsedge (Cyperus esculentus), 140 g ai/ha, 14 days after application, read-out: Visual Growth Reduction (%) 14 Days After Application, CYPES
`O=C(O)c1nc(-c2ccc(Cl)c(F)c2F)ccc1Cl` [F70, 3-Chloro-6-(4-chloro-2,3-difluorophenyl) picolinic acid] showed a pest or weed control at 140 g/ha of 75 to 84%. `O=C(O)c1nc(-c2ccnc(Cl)c2Cl)ccc1Cl` [F133, 2′,3′,5-Trichloro-[2,4′-bipyridine]-6-carboxylic acid] gave a pest or weed control at 140 g/ha of 0 to 29%.

Same assay, conditions: post-emergence, 336 h, DIGSA: crabgrass (Digitaria sanguinalis), 140 g ai/ha, 14 days after application, read-out: Visual Growth Reduction (%) 14 Days After Application, DIGSA
For `O=C(O)c1nc(-c2ccc(Cl)c(F)c2F)ccc1Cl` [F70, 3-Chloro-6-(4-chloro-2,3-difluorophenyl) picolinic acid], the pest or weed control at 140 g/ha was 60 to 74%. `O=C(O)c1nc(-c2ccnc(Cl)c2Cl)ccc1Cl` [F133, 2′,3′,5-Trichloro-[2,4′-bipyridine]-6-carboxylic acid] was tested, and the pest or weed control at 140 g/ha was 45 to 59%.

Same assay, conditions: post-emergence, 336 h, ECHCG: barnyardgrass (Echinochloa crus-galli), 140 g ai/ha, 14 days after application, read-out: Visual Growth Reduction (%) 14 Days After Application, ECHCG
Molecule `O=C(O)c1nc(-c2ccc(Cl)c(F)c2F)ccc1Cl` [F70, 3-Chloro-6-(4-chloro-2,3-difluorophenyl) picolinic acid] has a pest or weed control at 140 g/ha of 45 to 59%. Work on `O=C(O)c1nc(-c2ccnc(Cl)c2Cl)ccc1Cl` [F133, 2′,3′,5-Trichloro-[2,4′-bipyridine]-6-carboxylic acid] yielded a pest or weed control at 140 g/ha of 0 to 29%.

Same assay, conditions: post-emergence, 336 h, IPOHE: ivy-leaf morning glory (Ipomoea hederacea), 140 g ai/ha, 14 days after application, read-out: Visual Growth Reduction (%) 14 Days After Application, IPOHE
`O=C(O)c1nc(-c2ccc(Cl)c(F)c2F)ccc1Cl` [F70, 3-Chloro-6-(4-chloro-2,3-difluorophenyl) picolinic acid] was tested, and the pest or weed control at 140 g/ha was 85 to 94%. `O=C(O)c1nc(-c2ccnc(Cl)c2Cl)ccc1Cl` [F133, 2′,3′,5-Trichloro-[2,4′-bipyridine]-6-carboxylic acid] showed a pest or weed control at 140 g/ha of 45 to 59%.

Same assay, conditions: post-emergence, 336 h, KCHSC: kochia (Bassia scoparia), 140 g ai/ha, 14 days after application, read-out: Visual Growth Reduction (%) 14 Days After Application, KCHSC
With `O=C(O)c1nc(-c2ccnc(Cl)c2Cl)ccc1Cl` [F133, 2′,3′,5-Trichloro-[2,4′-bipyridine]-6-carboxylic acid] the pest or weed control at 140 g/ha was 0 to 29%.

Same assay, conditions: post-emergence, 336 h, ORYSA: rice (Oryza sativa), 140 g ai/ha, 14 days after application, read-out: Visual Growth Reduction (%) 14 Days After Application, ORYSA
`O=C(O)c1nc(-c2ccc(Cl)c(F)c2F)ccc1Cl` [F70, 3-Chloro-6-(4-chloro-2,3-difluorophenyl) picolinic acid] showed a pest or weed control at 140 g/ha of 0 to 29%. `O=C(O)c1nc(-c2ccnc(Cl)c2Cl)ccc1Cl` [F133, 2′,3′,5-Trichloro-[2,4′-bipyridine]-6-carboxylic acid] gave a pest or weed control at 140 g/ha of 0 to 29%.

Same assay, conditions: post-emergence, 336 h, SETFA: giant foxtail (Setaria faberi), 140 g ai/ha, 14 days after application, read-out: Visual Growth Reduction (%) 14 Days After Application, SETFA
`O=C(O)c1nc(-c2ccc(Cl)c(F)c2F)ccc1Cl` [F70, 3-Chloro-6-(4-chloro-2,3-difluorophenyl) picolinic acid] was tested, and the pest or weed control at 140 g/ha was 30 to 44%. `O=C(O)c1nc(-c2ccnc(Cl)c2Cl)ccc1Cl` [F133, 2′,3′,5-Trichloro-[2,4′-bipyridine]-6-carboxylic acid] was tested, and the pest or weed control at 140 g/ha was 0 to 29%.

Same assay, conditions: post-emergence, 336 h, SORVU: grain sorghum (Sorghum vulgare), 140 g ai/ha, 14 days after application, read-out: Visual Growth Reduction (%) 14 Days After Application, SORVU
`O=C(O)c1nc(-c2ccc(Cl)c(F)c2F)ccc1Cl` [F70, 3-Chloro-6-(4-chloro-2,3-difluorophenyl) picolinic acid] showed a pest or weed control at 140 g/ha of 85 to 94%. `O=C(O)c1nc(-c2ccnc(Cl)c2Cl)ccc1Cl` [F133, 2′,3′,5-Trichloro-[2,4′-bipyridine]-6-carboxylic acid] showed a pest or weed control at 140 g/ha of 60 to 74%.

Same assay, conditions: post-emergence, 336 h, STEME: common chickweed (Stellaria media), 140 g ai/ha, 14 days after application, read-out: Visual Growth Reduction (%) 14 Days After Application, STEME
Molecule `O=C(O)c1nc(-c2ccc(Cl)c(F)c2F)ccc1Cl` [F70, 3-Chloro-6-(4-chloro-2,3-difluorophenyl) picolinic acid] has a pest or weed control at 140 g/ha of 60 to 74%. `O=C(O)c1nc(-c2ccnc(Cl)c2Cl)ccc1Cl` [F133, 2′,3′,5-Trichloro-[2,4′-bipyridine]-6-carboxylic acid] gave a pest or weed control at 140 g/ha of 0 to 29%.

Same assay, conditions: post-emergence, 336 h, TRZAS: wheat, spring (Triticum aestivum), 140 g ai/ha, 14 days after application, read-out: Visual Growth Reduction (%) 14 Days After Application, TRZAS
With `O=C(O)c1nc(-c2ccnc(Cl)c2Cl)ccc1Cl` [F133, 2′,3′,5-Trichloro-[2,4′-bipyridine]-6-carboxylic acid] the pest or weed control at 140 g/ha was 0 to 29%.
